Data set [1] concerns the target C-terminal peptide of p53. Description: Affinity of DPp53C1 to the C-terminal peptide of p53. The data set is classed as binding.
Data set [2] concerns p53 monomer (L344P) mutant. The data set can be described thus: Recruitment (enrichment index) of p53 monomer into designed peptide droplets. Further details: species or system human. Conditions: 0.9–1.8 mM designed peptide, 0.1 µM Alexa488-labeled p53, 25 mM HEPES, 0.5 mM EDTA, 1 mM DTT, pH 7.0, 22 °C; ± standard error; SEM. From the text:
(§1) We prepared p53 tetramer, dimer, and monomer mutants, as described previously[8],[37],[50]. For the p53 tetramer, a thermostable and cysteine-modified human p53 mutant (C124A, C135V, C141V, W146Y, C182S, V203A, R209P, C229Y, H233Y, Y234F, N235K, Y236F, T253V, N268D, C275A, C277A, and K292C) was used[50]. The dimer and monomer mutants of p53 corresponded to L344A and L344P of the tetramer sequence, respectively[8],[37]. These p53 mutants were expressed with a glutathione S-transferase (GST) tag in E. coli and purified after cleavage of the GST tag, as described previously[50],[51]. The oligomeric state of p53 mutants was confirmed using a gel filtration column (Superdex 200; GE Healthcare). p53 mutants were labeled with Atto488 (ATTO-TEC) or Alexa488 (Thermo Fisher) using maleimide chemistry and then purified using a heparin column (GE Healthcare). We prepared Alexa488-labeled FUS-MBP as described previously[37],[39].
(§2) Recruitment evaluations were performed following the method described in our previous studies[37],[41]. Solutions containing 0.9–1.8 mM designed peptides, 0.1 µM Alexa488-labeled p53 mutants or Alexa488, 25 mM HEPES, 0.5 mM EDTA, and 1 mM DTT at pH 7.0 were used. The solutions were then incubated at 22 °C for five minutes. The aforementioned microscope was used with HILO illumination. To prevent photo-bleaching of the fluorescent samples, we used a laser power of 0.15 mW. The images were acquired at 22 °C. Using the ImageJ software, we calculated the EI values of the individual droplets as follows:2 EI=Idroplet/Isolution, where Idroplet and Isolution represent the average fluorescence intensities of the individual droplets and solutions near the droplets with background substitution, respectively.

Data set [3] in a line: Single-molecule fluorescence tracking (HILO) of labeled molecules in their droplets. Format: physicochemical. The following applies: Alexa488-labeled peptide 10–100 pM in 0.9 mM non-labeled peptide droplets; 25 mM HEPES, 0.5 mM EDTA, 45 mM NaCl, 150 mg/mL dextran, pH 7.0; linear fit of MSD (4D slope). On the procedure:
We quantitatively characterized the liquid droplet properties of the four designed peptides and compared them with those of p53. We measured the fusion of the designed peptide droplets in the solution used for p53 droplets (Supplementary Fig. S4). In the presence of 45 mM NaCl and 150 mg/mL dextran, the fusion of droplets for the four designed peptides was observed within 0.2 s, which was much faster than that for p53 (3.7 min)[8]. This gap in the fusion period implies different intrinsic dynamic properties. We measured the movement of Alexa488-labeled peptides within non-labeled peptide droplets using single-molecule fluorescence microscopy with a highly inclined and laminated optical sheet (HILO) illumination[37],[41] (Fig. 3A). […]
Single-molecule measurements were performed following the method described in our previous studies[37],[41]. An inverted fluorescence microscope (IX-73; Olympus) with a total internal reflection fluorescence unit (IX3RFAEVAW; Olympus) was used[52],[53]. […] The fluorescence collected via the objective lens was detected using an EM-CCD camera (iXon Ultra 888, Andor). […] Images were recorded at intervals of 15–154 ms after reducing the number of observable molecules in the droplets by photobleaching within one minute. […]

In data set [4] the test system is maltose binding protein-fused FUS (FUS-MBP). The data set can be described thus: Recruitment (enrichment index) of FUS-MBP into designed peptide droplets. Conditions: 1 mM DPp53N-GSGS-D7, 100 nM Alexa488-labeled protein, 1 mM DTT, pH 7.0. The method, then:
as §2, with “Solutions containing 0.9–1.8 mM designed peptides, 0.1 µM Alexa488-labeled p53 mutants or Alexa488, 25 mM HEPES, 0.5 mM EDTA, and 1 mM DTT at pH 7.0 were used.” left out
Fig. S10 p53 monomer is localized inside droplets of DPp53N-GSGS-D7, whereas FUS-MBP is localized in its droplet surfaces. Fluorescence images of Alexa488-labeled p53 monomer mutant (L344P) and FUS-MBP in droplet solution of non-labeled DPp53N-GSGS-D7. The solution containing 103 mM HEPES and 1 mM DTT, 100 nM Alexa488 labeled proteins, and 1 mM DPp53N-GSGS-D7 at pH 7.0 was used.
Fig. S13 Design and experimental verification of artificial PS peptides from PS protein FUS. […] (B) DIC and fluorescence images of the solution containing 4 mM FUS designed peptide and 120 mM HEPES at pH 7.0. […] (C) Fluorescence images of Alexa488-labeled FUS-MBP in non-labeled FUS-designed-peptide droplet solution. […]

Another data set has as its system p53 tetramer. The data set can be described thus: Recruitment (enrichment index) of p53 tetramer into designed peptide droplets. Also noted: species or system human. Conditions: droplet interior regions, surface not included; no salt, pH 7.0.
From the text: as §1, §2

For orientation: Kd means a measure of binding affinity in units of concentration. A lower Kd goes with higher affinity.

Consider DDDASQEDDD [DPp53C1], for which, in data set [1], the Kd came out at 10 µM.
For RRRVVQRRRRGSGSDDDDDDD [DPp53N-GSGS-D7], in data set [2], the “Enrichment index (EI) of p53 monomer (L344P) mutant in peptide droplets” value came out at 22.3 ± 0.7. Moreover, the “Average diffusion coefficient (D) in own droplets” value in data set [3] is 0.26 ± 0.01 μm^2/s. Moreover, in data set [4], the “Average EI of FUS-MBP, fold smaller than that of p53 monomer” value came to 2.2 fold. Moreover, the “Decrease of average EI of p53 tetramer relative to p53 monomer” value in the data set on p53 tetramer is on record as 10.5 fold.

(Values after PMC10079954, “Rational design of phase separating peptides based on phase separating protein sequence of p53” (Scientific Reports, 2023).)
